Laboratory results: US8003785B2 (Takeda Pharmaceutical Company Limited, priority 2008, dated 2011)

target: T1, PLK1 (Homo sapiens, UniProt P53350); assay: Biochemical Characterization Assay: HTRF kinase assay, GST-PLK1 phosphorylation of GST-p53; settings: GST-PLK1, GST-p53 substrate
T1 construct: Full-length, active GST-PLK1 is purified from Sf9 insect cells; made in house; host or cells: Sf9 insect cells
Method in brief: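 HTRF read-out of p53 phosphorylation: after EDTA stop, anti-phospho-p53 antibody bound 30 min at 37 °C in HEPES pH 7 buffer, with Eu-anti-rabbit/APC-anti-GST detection. Kinase step used full-length Sf9-expressed GST-PLK1 (3 ug/mL) and E. coli GST-p53 substrate, 35 min at 37 °C.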

T1 sequence (P53350 whole entry): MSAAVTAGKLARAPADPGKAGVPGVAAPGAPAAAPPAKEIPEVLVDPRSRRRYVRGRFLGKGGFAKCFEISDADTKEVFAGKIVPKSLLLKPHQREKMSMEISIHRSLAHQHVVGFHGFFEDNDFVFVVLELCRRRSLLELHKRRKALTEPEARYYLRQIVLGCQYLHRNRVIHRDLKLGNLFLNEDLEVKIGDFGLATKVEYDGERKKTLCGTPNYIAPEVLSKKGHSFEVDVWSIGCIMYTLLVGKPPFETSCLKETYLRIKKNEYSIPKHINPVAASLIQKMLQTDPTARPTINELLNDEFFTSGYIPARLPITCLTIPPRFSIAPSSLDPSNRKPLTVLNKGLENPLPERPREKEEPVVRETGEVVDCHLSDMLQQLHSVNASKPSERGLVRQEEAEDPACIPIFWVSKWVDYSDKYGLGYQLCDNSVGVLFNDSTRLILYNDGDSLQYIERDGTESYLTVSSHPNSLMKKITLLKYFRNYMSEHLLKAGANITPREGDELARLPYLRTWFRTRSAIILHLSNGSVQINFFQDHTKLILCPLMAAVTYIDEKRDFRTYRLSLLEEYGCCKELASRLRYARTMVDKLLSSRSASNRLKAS

Compared with `COc1cc(C(N)=O)ccc1Nc1ncc2c(n1)N(CCc1cccs1)CC(F)(F)C(=O)N2C` [Example I-271, 4-[7,7-difluoro-5-methyl-6-oxo-9-(2-thiophen-2-yl-ethyl)-6,7,8,9-tetrahydro-5H-pyrimido[4,5-b][1,4]diazepin-2-ylamino]-3-methoxy-benzamide], `COc1cc(C(=O)NC2CCN(C)CC2)ccc1Nc1ncc2c(n1)N(CCc1cccs1)CC(F)(F)C(=O)N2C` [Example I-270, 4-[7,7-difluoro-5-methyl-6-oxo-9-(2-thiophen-2-yl-ethyl)-6,7,8,9-tetrahydro-5H-pyrimido[4,5-b][1,4]diazepin-2-ylamino]-3-methoxy-N-(1-methyl-piperidin-4-yl)-benzamide] is lower in IC50: 51 to 500 nM for the first, 1 to 50 nM for the second.

`CN1C(=O)C(F)(F)CN(C2CCCC2)c2nc(Nc3cc(F)c(C(=O)NC4CCOCC4)cc3F)ncc21` [Example I-235, 4-(9-cyclopentyl-7,7-difluoro-5-methyl-6-oxo-6,7,8,9-tetrahydro-5H-pyrimido[4,5-b][1,4]diazepin-2-ylamino)-2,5-difluoro-N-(tetrahydro-pyran-4-yl)-benzamide] and `CCOc1cc(C(=O)NC2CCOCC2)ccc1Nc1ncc2c(n1)N(C1CCCC1)CC(F)(F)C(=O)N2C` [Example I-217, 4-(9-cyclopentyl-7,7-difluoro-5-methyl-6-oxo-6,7,8,9-tetrahydro-5H-pyrimido[4,5-b][1,4]diazepin-2-ylamino)-3-ethoxy-N-(tetrahydro-pyran-4-yl)-benzamide] fall in the same range of IC50: 1 to 50 nM for the first, 1 to 50 nM for the second.

`CNC(=O)c1ccc(Nc2ncc3c(n2)N(C2CCCC2)CC(F)(F)C(=O)N3C)c(C(F)(F)F)c1` [Example I-210, 4-(9-cyclopentyl-7,7-difluoro-5-methyl-6-oxo-6,7,8,9-tetrahydro-5H-pyrimido[4,5-b][1,4]diazepin-2-ylamino)-N-methyl-3-trifluoromethyl-benzamide] and `CN1C(=O)C(F)(F)CN(C2CCCC2)c2nc(Nc3ccc(C(N)=O)cc3C(F)(F)F)ncc21` [Example I-213, 4-(9-cyclopentyl-7,7-difluoro-5-methyl-6-oxo-6,7,8,9-tetrahydro-5H-pyrimido[4,5-b][1,4]diazepin-2-ylamino)-3-trifluoromethyl-benzamide] fall in the same range of IC50: 51 to 500 nM for the first, 51 to 500 nM for the second.

First: CCN1C(=O)C(F)(F)CN(C2CCCC2)c2nc(Nc3ccc(C(=O)NCCCN(C)C)cc3OC)ncc21 [Example I-160, 4-(9-cyclopentyl-5-ethyl-7,7-difluoro-6-oxo-6,7,8,9-tetra-hydro-5H-pyrimido[4,5-b][1,4]diazepin-2-ylamino)-N-(3-dimethylamino-propyl)-3-methoxy-benzamide]
Second: CCOc1cc(C(=O)NCCCN(C)C)ccc1Nc1ncc2c(n1)N(C1CCCC1)CC(F)(F)C(=O)N2C [Example I-219, 4-(9-cyclopentyl-7,7-difluoro-5-methyl-6-oxo-6,7,8,9-tetrahydro-5H-pyrimido[4,5-b][1,4]diazepin-2-ylamino)-N-(3-dimethylamino-propyl)-3-ethoxy-benzamide]
The IC50 of the first is higher: 51 to 500 nM for the first, 1 to 50 nM for the second.

First: COc1cc(C(=O)O)ccc1Nc1ncc2c(n1)N(C(C)C)CC(F)(F)C(=O)N2C [Example I-292, 4-(7,7-difluoro-9-isopropyl-5-methyl-6-oxo-6,7,8,9-tetrahydro-5H-pyrimido[4,5-b][1,4]diazepin-2-ylamino)-3-methoxy-benzoic acid]
Second: CNC(=O)c1ccc(Nc2ncc3c(n2)N(C(C)C)CC(F)(F)C(=O)N3C)c(OC)c1 [Example I-295, 4-(7,7-difluoro-9-isopropyl-5-methyl-6-oxo-6,7,8,9-tetrahydro-5H-pyrimido[4,5-b][1,4]diazepin-2-ylamino)-3-methoxy-N-methyl-benzamide]
The IC50 of the first is higher: 51 to 500 nM for the first, 1 to 50 nM for the second. The second is the more potent here.

Compared with `COc1cc(C(=O)NC2CCN(C)CC2)ccc1Nc1ncc2c(n1)N(CCc1ccccc1)CC(F)(F)C(=O)N2C` [Example I-276, 4-(7,7-difluoro-5-methyl-6-oxo-9-phenethyl-6,7,8,9-tetrahydro-5!-pyrimido[4,5-b][1,4]diazepin-2-ylamino)-3-methoxy-N-(1-methyl-piperidin-4-yl)-benzamide], `COc1cc(C(=O)NCCCN(C)C)ccc1Nc1ncc2c(n1)N(CCc1ccccc1)CC(F)(F)C(=O)N2C` [Example I-279, 4-(7,7-difluoro-5-methyl-6-oxo-9-phenethyl-6,7,8,9-tetrahydro-5H-pyrimido[4,5-b][1,4]diazepin-2-ylamino)-N-(3-dimethylamino-propyl)-3-methoxy-benzamide] is higher in IC50: 1 to 50 nM for the first, 51 to 500 nM for the second. The first is the more potent here.

First: COc1cc(C(=O)NC2CCN(C)CC2)ccc1Nc1ncc2c(n1)NCC(F)(F)C(=O)N2C [Example I-303, 4-(7,7-difluoro-5-methyl-6-oxo-6,7,8,9-tetrahydro-5H-pyrimido[4,5-b][1,4]diazepin-2-ylamino)-3-methoxy-N-(1-methyl-piperidin-4-yl)-benzamide]
Second: COc1cc(C(=O)NC2CCOCC2)ccc1Nc1ncc2c(n1)N(C(C)C)CC(F)(F)C(=O)N2C [Example I-297, 4-(7,7-difluoro-9-isopropyl-5-methyl-6-oxo-6,7,8,9-tetrahydro-5H-pyrimido[4,5-b][1,4]diazepin-2-ylamino)-3-methoxy-N-(tetrahydro-pyran-4-yl)-benzamide]
The IC50 of the first is higher: 51 to 500 nM for the first, 1 to 50 nM for the second.

`CCOc1cc(C(=O)NCCN(C)C)ccc1Nc1ncc2c(n1)N(C1CCCC1)CC(F)(F)C(=O)N2C` [Example I-218, 4-(9-cyclopentyl-7,7-difluoro-5-methyl-6-oxo-6,7,8,9-tetrahydro-5H-pyrimido[4,5-b][1,4]diazepin-2-ylamino)-N-(2-dimethylamino-ethyl)-3-ethoxy-benzamide] and `COc1cc(C(=O)NCCN(C)C)c(F)cc1Nc1ncc2c(n1)N(C1CCCC1)CC(F)(F)C(=O)N2C` [Example I-174, 4-(9-cyclopentyl-7,7-difluoro-5-methyl-6-oxo-6,7,8,9-tetra-hydro-5H-pyrimido[4,5-b][1,4]diazepin-2-ylamino)-N-(3-dimethylamino-ethyl)-2-fluoro-5-methoxy-benzamide] fall in the same range of IC50: 1 to 50 nM for the first, 1 to 50 nM for the second.

`CC(C)Oc1cc(C(=O)NC2CCN(C)CC2)ccc1Nc1ncc2c(n1)N(C1CCCC1)CC(F)(F)C(=O)N2C` [Example I-180, 4-(9-cyclopentyl-7,7-difluoro-5-methyl-6-oxo-6,7,8,9-tetrahydro-5H-pyrimido[4,5-b][1,4]diazepin-2-ylamino)-3-isopropoxy-N-(1-methyl-piperidin-4-yl)-benzamide] and `CCN1CCC(NC(=O)c2ccc(Nc3ncc4c(n3)N(C3CCCC3)CC(F)(F)C(=O)N4C)c(F)c2)CC1` [Example I-224, 4-(9-cyclopentyl-7,7-difluoro-5-methyl-6-oxo-6,7,8,9-tetrahydro-5H-pyrimido[4,5-b][1,4]diazepin-2-ylamino)-N-(1-ethyl-piperidin-4-yl)-3-fluoro-benzamidemide] fall in the same range of IC50: 1 to 50 nM for the first, 1 to 50 nM for the second.

same assay, conditions: GST-PLK1, GST-p53 substrate, ATP

`COc1cc(C(=O)NC2CC3CCC(C2)N3C)ccc1Nc1ncc2c(n1)N(C1CCCC1)CC(F)(F)C(=O)N2C` (centres unmarked) [Example I-50, 4-(9-cyclopentyl-7,7-difluoro-5-methyl-6-oxo-6,7,8,9-tetrahydro-5H-pyrimido[4,5-b][1,4]diazepin-2-ylamino)-3-methoxy-N-(8-methyl-8-aza-bicyclo[3.2.1]oct-3-yl)-benzamide] and `COc1cc(C(=O)NC2CCN(C3CC3)CC2)ccc1Nc1ncc2c(n1)N(C1CCCC1)CC(F)(F)C(=O)N2C` [Example I-66, 4-(9-cyclopentyl-7,7-difluoro-5-methyl-6-oxo-6,7,8,9-tetrahydro-5H-pyrimido[4,5-b][1,4]diazepin-2-ylamino)-N-(1-cyclopropyl-piperidin-4-yl)-3-methoxy-benzamide] fall in the same range of IC50: 1 to 50 nM for the first, 1 to 50 nM for the second.

First: COc1cc(C(=O)NCCc2ccccn2)ccc1Nc1ncc2c(n1)N(C1CCCC1)CC(F)(F)C(=O)N2C [Example I-116, 4-(9-cyclopentyl-7,7-difluoro-5-methyl-6-oxo-6,7,8,9-tetrahydro-5H-pyrimido[4,5-b][1,4]diazepin-2-ylamino)-3-methoxy-N-(2-pyridin-2-yl-ethyl)-benzamide]
Second: COc1cc(C(=O)NCCc2ccc3c(c2)OCO3)ccc1Nc1ncc2c(n1)N(C1CCCC1)CC(F)(F)C(=O)N2C [Example I-43, N-(2-benzo[1,3]dioxol-5-yl-ethyl)-4-(9-cyclopentyl-7,7-difluoro-5-methyl-6-oxo-6,7,8,9-tetrahydro-5H-pyrimido[4,5-b][1,4]diazepin-2-ylamino)-3-methoxy-benzamide]
The IC50 of the first is lower: 1 to 50 nM for the first, 51 to 500 nM for the second.

`CCCN1C(=O)C(F)(F)CN(C2CCCC2)c2nc(Nc3ccc(C(=O)NCCCN(C)C)cc3)ncc21` [Example I-148, 4-(9-cyclopentyl-7,7-difluoro-6-oxo-5-propyl-6,7,8,9-tetrahydro-5H-pyrimido[4,5-b][1,4]diazepin-2-yl-amino)-N-(3-dimethyl-amino-propyl)-benzamide] and `CCN1C(=O)C(F)(F)CN(C2CCCC2)c2nc(Nc3ccc(C(=O)NC)cc3)ncc21` [Example I-140, 4-(9-cyclopentyl-5-ethyl-7,7-difluoro-6-oxo-6,7,8,9-tetrahydro-5H-pyrimido[4,5-b][1,4]diazepin-2-ylamino)-N-methyl-benzamide] fall in the same range of IC50: 500 to 5000 nM for the first, 500 to 5000 nM for the second.

`COc1cc(C(=O)NCC(O)CN2CCNCC2)ccc1Nc1ncc2c(n1)N(C1CCCC1)CC(F)(F)C(=O)N2C` (centres unmarked) [Example I-121, 4-(9-cyclopentyl-7,7-difluoro-5-methyl-6-oxo-6,7,8,9-tetrahydro-5H-pyrimido[4,5-b][1,4]diazepin-2-ylamino)-N-(2-hydroxy-3-piperazin-1-yl-propyl)-3-methoxy-benzamide] and `COc1cc(C(=O)N[C@H]2CCN(Cc3ccccc3)C2)ccc1Nc1ncc2c(n1)N(C1CCCC1)CC(F)(F)C(=O)N2C` [Example I-100, N—((S)-1-benzyl-pyrrolidin-3-yl)-4-(9-cyclopentyl-7,7-difluoro-5-methyl-6-oxo-6,7,8,9-tetrahydro-5H-pyrimido[4,5-b][1,4]diazepin-2-ylamino)-3-methoxy-benzamide] fall in the same range of IC50: 1 to 50 nM for the first, 1 to 50 nM for the second.
